Source: the NIST ThermoML archive (doi:10.1007/s10765-010-0768-y)

Assay: xn = mol fraction of the nth substance listed
Conditions: 101 kPa, Liquid, Pycnometric method

C=CC(=O)OCCCC [butyl 2-propenoate] + Cc1ccccc1C
mass density [kg/m3]
Conditions | 288.15 K | 293.15 K | 298.15 K | 303.15 K | 308.15 K | 313.15 K | 318.15 K
x1 = 0.0685 | 885.81 | 881.5 | 877.19 | 872.88 | 868.57 | 864.26 | 859.95
x1 = 0.1306 | 887.32 | 882.97 | 878.62 | 874.27 | 869.92 | 865.57 | 861.22
x1 = 0.2018 | 889 | 884.6 | 880.2 | 875.8 | 871.41 | 867.02 | 862.63
x1 = 0.2738 | 890.63 | 886.19 | 881.75 | 877.31 | 872.87 | 868.44 | 864.01
x1 = 0.3654 | 892.61 | 888.12 | 883.63 | 879.14 | 874.65 | 870.17 | 865.69
x1 = 0.4331 | 894.01 | 889.49 | 884.97 | 880.45 | 875.93 | 871.41 | 866.89
x1 = 0.5072 | 895.49 | 890.93 | 886.37 | 881.81 | 877.25 | 872.7 | 868.14
x1 = 0.589 | 897.05 | 892.45 | 887.85 | 883.25 | 878.65 | 874.06 | 869.47
x1 = 0.6522 | 898.2 | 893.57 | 888.94 | 884.31 | 879.68 | 875.06 | 870.44
x1 = 0.7283 | 899.51 | 894.85 | 890.19 | 885.53 | 880.87 | 876.21 | 871.55
x1 = 0.7924 | 900.56 | 895.87 | 891.18 | 886.49 | 881.8 | 877.12 | 872.44
x1 = 0.8587 | 901.6 | 896.88 | 892.16 | 887.45 | 882.74 | 878.03 | 873.32
x1 = 0.9298 | 902.64 | 897.9 | 893.16 | 888.42 | 883.69 | 878.96 | 874.23
x1 = 1 | 903.6 | 898.85 | 894.1 | 889.35 | 884.6 | 879.85 | 875.1

C=CC(=O)OCCCC [butyl 2-propenoate] + c1ccccc1
mass density [kg/m3]
Conditions | 288.15 K | 293.15 K | 298.15 K | 303.15 K | 308.15 K | 313.15 K | 318.15 K
x1 = 0.0722 | 887.23 | 881.89 | 876.56 | 871.23 | 865.9 | 860.57 | 855.24
x1 = 0.142 | 889.79 | 884.48 | 879.17 | 873.86 | 868.56 | 863.26 | 857.96
x1 = 0.2062 | 891.94 | 886.65 | 881.36 | 876.08 | 870.8 | 865.52 | 860.24
x1 = 0.2794 | 894.12 | 888.87 | 883.62 | 878.37 | 873.12 | 867.87 | 862.62
x1 = 0.3586 | 896.24 | 891.02 | 885.8 | 880.58 | 875.36 | 870.14 | 864.92
x1 = 0.4363 | 898.02 | 892.83 | 887.64 | 882.46 | 877.28 | 872.1 | 866.92
x1 = 0.5074 | 899.4 | 894.25 | 889.11 | 883.97 | 878.83 | 873.69 | 868.55
x1 = 0.5818 | 900.63 | 895.53 | 890.43 | 885.33 | 880.23 | 875.13 | 870.03
x1 = 0.6423 | 901.47 | 896.4 | 891.33 | 886.26 | 881.2 | 876.14 | 871.08
x1 = 0.7226 | 902.36 | 897.34 | 892.32 | 887.3 | 882.29 | 877.28 | 872.27
x1 = 0.7902 | 902.91 | 897.94 | 892.97 | 888 | 883.03 | 878.07 | 873.11
x1 = 0.8563 | 903.29 | 898.38 | 893.47 | 888.56 | 883.65 | 878.75 | 873.85
x1 = 0.9305 | 903.53 | 898.69 | 893.85 | 889.01 | 884.18 | 879.35 | 874.52
x1 = 1 | 903.6 | 898.85 | 894.1 | 889.35 | 884.6 | 879.85 | 875.1
